Results taken from paper PMC4138023, “Selective HDAC Inhibition for the Disruption of Latent HIV-1 Infection” (PLoS ONE, 2014).

Legend:
Assay in all cases: microfluidic mobility shift (LabChip), FAM-acetylated peptide substrate
Format in all cases: biochemical
HDAC9 = molecular target: T1, HDAC9 (Homo sapiens, UniProt Q9UKV0); conditions: read-out: HDAC IC50 (μM) without preincubation / HDAC9
T1 construct: purified commercial enzyme from BPS Bioscience
Excerpt: microfluidic mobility shift (LabChip), FAM-acetylated peptide substrate on HDAC9

HDAC1 = molecular target: T2, HDAC1 (Homo sapiens, UniProt Q13547); conditions: without preincubation; […] min, room temperature, pH […] substrate; read-out: HDAC IC50 (μM) without preincubation / HDAC1
T2 construct: purified commercial enzyme from BPS Bioscience
Excerpt: microfluidic mobility shift (LabChip), FAM-acetylated peptide substrate on HDAC1

HDAC3 = molecular target: T3, HDAC3 (Homo sapiens, UniProt O15379); conditions: without preincubation; […] min, room temperature, pH […] substrate; read-out: HDAC IC50 (μM) without preincubation / HDAC3
T3 construct: purified commercial enzyme from BPS Bioscience; with Nuclear receptor corepressor 2
Excerpt: microfluidic mobility shift (LabChip), FAM-acetylated peptide substrate on HDAC3

HDAC4 = molecular target: T4, HDAC4 (Homo sapiens, UniProt P56524); conditions: read-out: HDAC IC50 (μM) without preincubation / HDAC4
T4 construct: purified commercial enzyme from BPS Bioscience
Excerpt: microfluidic mobility shift (LabChip), FAM-acetylated peptide substrate on HDAC4

HDAC7 = molecular target: T5, HDAC7 (Homo sapiens, UniProt Q8WUI4); conditions: read-out: HDAC IC50 (μM) without preincubation / HDAC4
T5 construct: purified commercial enzyme from BPS Bioscience
T5 sequence (Q8WUI4 518-952 limits assumed): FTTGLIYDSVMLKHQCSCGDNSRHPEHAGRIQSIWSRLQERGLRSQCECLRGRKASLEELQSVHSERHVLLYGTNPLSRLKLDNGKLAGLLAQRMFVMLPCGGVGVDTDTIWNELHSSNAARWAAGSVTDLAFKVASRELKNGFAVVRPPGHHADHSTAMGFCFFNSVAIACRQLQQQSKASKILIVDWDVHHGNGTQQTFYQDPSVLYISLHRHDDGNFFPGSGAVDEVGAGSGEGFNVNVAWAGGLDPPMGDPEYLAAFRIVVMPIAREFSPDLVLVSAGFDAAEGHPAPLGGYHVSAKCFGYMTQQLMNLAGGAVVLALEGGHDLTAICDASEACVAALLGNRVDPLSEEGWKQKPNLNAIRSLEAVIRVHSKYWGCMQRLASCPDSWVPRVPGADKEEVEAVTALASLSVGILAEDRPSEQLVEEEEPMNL
Excerpt: microfluidic mobility shift (LabChip), FAM-acetylated peptide substrate on HDAC7

HDAC8 = molecular target: T6, HDAC8 (Homo sapiens, UniProt Q9BY41); conditions: read-out: HDAC IC50 (μM) without preincubation / HDAC4
T6 construct: purified commercial enzyme from BPS Bioscience
T6 sequence (Q9BY41 1-377): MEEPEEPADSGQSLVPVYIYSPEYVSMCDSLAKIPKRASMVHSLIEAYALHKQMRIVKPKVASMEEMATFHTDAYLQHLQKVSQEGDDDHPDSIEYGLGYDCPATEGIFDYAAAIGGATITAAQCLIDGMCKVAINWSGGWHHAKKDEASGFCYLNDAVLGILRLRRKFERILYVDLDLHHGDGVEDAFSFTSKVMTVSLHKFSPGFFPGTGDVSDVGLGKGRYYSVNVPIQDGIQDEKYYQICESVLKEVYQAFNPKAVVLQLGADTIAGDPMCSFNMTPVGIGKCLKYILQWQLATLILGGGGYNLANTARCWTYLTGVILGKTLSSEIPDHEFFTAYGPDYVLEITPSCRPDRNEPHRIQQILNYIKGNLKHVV
Excerpt: microfluidic mobility shift (LabChip), FAM-acetylated peptide substrate on HDAC8

HDAC2 = molecular target: T7, HDAC2 (Homo sapiens, UniProt Q92769); conditions: without preincubation; […] min, room temperature, pH […] substrate; read-out: HDAC IC50 (μM) without preincubation / HDAC2
T7 construct: purified commercial enzyme from BPS Bioscience
Excerpt: microfluidic mobility shift (LabChip), FAM-acetylated peptide substrate on HDAC2

HDAC6 = molecular target: T8, HDAC6 (Homo sapiens, UniProt Q9UBN7); conditions: read-out: HDAC IC50 (μM) without preincubation / HDAC4
T8 construct: purified commercial enzyme from BPS Bioscience
T8 sequence (Q9UBN7 1-1215): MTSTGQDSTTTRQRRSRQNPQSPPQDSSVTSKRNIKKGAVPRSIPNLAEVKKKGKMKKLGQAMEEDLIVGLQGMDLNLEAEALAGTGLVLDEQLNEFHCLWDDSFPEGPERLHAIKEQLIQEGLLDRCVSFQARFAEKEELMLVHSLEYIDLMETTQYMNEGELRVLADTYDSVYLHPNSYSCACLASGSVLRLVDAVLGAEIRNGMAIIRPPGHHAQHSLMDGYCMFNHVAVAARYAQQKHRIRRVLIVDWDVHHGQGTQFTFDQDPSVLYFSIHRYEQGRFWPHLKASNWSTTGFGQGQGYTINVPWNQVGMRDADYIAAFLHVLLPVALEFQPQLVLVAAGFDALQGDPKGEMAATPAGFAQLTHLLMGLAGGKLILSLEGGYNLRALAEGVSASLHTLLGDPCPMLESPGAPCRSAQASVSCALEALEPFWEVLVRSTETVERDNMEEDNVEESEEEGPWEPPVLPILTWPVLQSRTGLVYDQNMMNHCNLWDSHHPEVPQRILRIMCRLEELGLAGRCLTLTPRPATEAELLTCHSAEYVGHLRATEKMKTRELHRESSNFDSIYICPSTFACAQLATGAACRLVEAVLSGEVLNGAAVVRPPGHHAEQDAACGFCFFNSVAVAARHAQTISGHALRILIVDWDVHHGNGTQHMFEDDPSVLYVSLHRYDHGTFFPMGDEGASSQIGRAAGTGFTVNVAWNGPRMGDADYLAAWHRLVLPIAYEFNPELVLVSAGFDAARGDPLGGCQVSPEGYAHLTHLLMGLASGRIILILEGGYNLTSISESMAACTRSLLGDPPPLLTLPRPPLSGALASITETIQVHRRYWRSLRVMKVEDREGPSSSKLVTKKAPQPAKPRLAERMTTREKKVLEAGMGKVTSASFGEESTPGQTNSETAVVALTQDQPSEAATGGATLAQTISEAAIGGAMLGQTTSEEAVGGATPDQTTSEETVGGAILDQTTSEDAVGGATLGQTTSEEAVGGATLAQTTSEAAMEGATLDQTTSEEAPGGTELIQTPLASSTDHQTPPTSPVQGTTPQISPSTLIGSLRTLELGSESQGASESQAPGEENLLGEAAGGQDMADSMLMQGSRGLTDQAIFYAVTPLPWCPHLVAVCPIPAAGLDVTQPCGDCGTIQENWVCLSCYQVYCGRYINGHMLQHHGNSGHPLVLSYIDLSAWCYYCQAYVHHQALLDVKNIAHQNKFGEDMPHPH
Excerpt: microfluidic mobility shift (LabChip), FAM-acetylated peptide substrate on HDAC6

HDAC5 = molecular target: T9, HDAC5 (Homo sapiens, UniProt Q9UQL6); conditions: read-out: HDAC IC50 (μM) without preincubation / HDAC5
T9 construct: purified commercial enzyme from BPS Bioscience
Excerpt: microfluidic mobility shift (LabChip), FAM-acetylated peptide substrate on HDAC5

T9 sequence (Q9UQL6 whole entry): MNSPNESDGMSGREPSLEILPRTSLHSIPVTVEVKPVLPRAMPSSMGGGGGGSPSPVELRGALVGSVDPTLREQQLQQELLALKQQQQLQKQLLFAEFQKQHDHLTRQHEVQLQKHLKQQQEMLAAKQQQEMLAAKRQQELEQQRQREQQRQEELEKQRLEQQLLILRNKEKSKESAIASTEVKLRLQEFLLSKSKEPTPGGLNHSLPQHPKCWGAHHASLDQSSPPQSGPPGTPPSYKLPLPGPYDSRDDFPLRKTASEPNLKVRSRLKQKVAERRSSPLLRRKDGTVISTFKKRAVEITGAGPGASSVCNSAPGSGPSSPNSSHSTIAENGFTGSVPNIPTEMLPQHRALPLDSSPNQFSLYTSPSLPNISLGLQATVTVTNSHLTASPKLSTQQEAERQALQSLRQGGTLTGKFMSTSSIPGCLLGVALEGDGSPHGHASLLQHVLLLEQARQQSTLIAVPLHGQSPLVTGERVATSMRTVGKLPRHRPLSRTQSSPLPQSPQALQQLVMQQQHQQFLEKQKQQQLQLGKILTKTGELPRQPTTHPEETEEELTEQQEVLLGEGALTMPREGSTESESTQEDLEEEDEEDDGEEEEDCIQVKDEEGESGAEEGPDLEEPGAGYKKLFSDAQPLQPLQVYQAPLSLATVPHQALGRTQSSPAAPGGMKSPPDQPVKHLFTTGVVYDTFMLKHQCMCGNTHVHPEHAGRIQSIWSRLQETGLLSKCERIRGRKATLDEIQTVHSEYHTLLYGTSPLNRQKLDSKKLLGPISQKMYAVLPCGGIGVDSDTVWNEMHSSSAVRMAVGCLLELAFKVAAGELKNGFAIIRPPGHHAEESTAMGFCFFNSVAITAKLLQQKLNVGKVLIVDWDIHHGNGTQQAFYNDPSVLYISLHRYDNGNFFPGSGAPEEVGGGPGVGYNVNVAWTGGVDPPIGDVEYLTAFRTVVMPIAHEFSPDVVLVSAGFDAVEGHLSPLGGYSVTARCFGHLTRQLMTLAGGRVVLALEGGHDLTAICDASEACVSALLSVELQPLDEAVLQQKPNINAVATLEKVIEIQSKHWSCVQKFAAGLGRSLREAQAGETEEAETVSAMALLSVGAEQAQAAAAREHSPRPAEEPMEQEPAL
T3 sequence (O15379 whole entry): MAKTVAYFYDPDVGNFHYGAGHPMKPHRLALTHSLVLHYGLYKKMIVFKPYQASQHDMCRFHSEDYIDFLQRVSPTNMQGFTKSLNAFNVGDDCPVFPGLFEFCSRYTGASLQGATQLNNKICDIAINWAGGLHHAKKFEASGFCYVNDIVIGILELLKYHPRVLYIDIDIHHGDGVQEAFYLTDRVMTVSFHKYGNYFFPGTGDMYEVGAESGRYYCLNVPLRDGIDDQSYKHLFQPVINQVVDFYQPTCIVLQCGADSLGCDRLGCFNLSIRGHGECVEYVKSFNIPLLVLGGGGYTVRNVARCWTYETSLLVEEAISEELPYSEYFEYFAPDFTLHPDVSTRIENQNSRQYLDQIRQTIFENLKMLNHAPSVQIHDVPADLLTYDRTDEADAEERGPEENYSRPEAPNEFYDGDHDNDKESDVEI
T3 sequence (Q9Y618 whole entry partner): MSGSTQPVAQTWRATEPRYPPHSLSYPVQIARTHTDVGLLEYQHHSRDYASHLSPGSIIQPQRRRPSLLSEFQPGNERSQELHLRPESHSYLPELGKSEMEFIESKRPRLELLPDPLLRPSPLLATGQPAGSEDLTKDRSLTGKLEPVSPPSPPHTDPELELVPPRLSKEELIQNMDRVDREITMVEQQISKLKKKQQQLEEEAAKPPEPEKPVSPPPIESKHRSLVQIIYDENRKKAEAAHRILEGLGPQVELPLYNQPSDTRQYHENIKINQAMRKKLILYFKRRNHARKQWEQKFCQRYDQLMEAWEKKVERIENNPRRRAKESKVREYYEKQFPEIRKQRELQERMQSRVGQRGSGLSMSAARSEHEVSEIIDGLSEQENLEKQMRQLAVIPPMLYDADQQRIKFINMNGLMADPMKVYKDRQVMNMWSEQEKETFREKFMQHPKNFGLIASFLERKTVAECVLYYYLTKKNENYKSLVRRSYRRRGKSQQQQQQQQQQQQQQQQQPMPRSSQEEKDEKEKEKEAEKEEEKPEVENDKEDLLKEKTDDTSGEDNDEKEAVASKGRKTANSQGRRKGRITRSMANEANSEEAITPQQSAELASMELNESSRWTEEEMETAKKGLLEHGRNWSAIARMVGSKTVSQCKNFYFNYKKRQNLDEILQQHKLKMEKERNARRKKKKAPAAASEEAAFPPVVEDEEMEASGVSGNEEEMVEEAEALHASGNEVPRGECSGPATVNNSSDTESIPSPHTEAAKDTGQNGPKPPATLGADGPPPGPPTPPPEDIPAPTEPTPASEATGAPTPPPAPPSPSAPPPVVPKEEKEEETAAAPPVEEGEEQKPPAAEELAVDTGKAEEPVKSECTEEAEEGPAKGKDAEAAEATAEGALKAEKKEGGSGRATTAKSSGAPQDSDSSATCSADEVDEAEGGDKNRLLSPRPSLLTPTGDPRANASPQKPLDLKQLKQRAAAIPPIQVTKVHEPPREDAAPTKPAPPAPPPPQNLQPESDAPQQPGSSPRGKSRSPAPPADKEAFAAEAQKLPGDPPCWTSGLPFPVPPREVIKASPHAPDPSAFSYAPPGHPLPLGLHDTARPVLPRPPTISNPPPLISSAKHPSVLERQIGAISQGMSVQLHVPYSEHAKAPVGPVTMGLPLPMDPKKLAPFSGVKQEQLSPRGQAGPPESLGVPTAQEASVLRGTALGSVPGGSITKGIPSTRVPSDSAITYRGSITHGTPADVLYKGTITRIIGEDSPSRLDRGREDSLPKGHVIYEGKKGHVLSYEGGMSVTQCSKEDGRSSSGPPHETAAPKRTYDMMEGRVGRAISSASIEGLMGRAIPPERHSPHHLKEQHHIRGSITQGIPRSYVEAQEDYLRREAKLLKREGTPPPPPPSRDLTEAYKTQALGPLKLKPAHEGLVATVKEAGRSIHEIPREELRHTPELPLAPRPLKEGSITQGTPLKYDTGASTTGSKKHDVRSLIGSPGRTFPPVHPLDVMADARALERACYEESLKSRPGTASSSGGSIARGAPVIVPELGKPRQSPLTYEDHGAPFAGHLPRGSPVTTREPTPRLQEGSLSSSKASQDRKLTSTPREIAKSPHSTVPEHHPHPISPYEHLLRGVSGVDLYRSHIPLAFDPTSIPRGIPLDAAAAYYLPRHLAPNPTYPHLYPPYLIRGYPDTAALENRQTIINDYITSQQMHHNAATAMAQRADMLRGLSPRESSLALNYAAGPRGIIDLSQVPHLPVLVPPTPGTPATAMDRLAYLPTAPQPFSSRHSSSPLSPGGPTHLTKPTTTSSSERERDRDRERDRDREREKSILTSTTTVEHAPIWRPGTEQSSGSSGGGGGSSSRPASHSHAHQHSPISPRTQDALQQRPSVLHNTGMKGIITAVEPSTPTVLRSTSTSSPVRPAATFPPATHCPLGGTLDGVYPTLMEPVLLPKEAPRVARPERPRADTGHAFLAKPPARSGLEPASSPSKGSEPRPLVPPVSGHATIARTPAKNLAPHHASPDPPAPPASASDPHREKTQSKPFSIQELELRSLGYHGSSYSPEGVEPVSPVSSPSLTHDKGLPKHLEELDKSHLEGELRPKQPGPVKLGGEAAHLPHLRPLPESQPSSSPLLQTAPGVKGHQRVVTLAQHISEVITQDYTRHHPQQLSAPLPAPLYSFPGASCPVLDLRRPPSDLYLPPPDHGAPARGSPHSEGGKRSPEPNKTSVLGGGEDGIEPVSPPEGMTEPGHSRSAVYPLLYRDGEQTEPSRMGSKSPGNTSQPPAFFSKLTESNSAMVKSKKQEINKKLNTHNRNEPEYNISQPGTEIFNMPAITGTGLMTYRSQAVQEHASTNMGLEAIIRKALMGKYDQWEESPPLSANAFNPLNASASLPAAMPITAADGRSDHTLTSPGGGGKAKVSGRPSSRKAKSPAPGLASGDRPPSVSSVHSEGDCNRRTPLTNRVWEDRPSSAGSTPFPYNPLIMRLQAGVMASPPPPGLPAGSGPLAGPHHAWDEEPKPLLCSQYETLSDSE
T4 sequence (P56524 627-1084 limits assumed): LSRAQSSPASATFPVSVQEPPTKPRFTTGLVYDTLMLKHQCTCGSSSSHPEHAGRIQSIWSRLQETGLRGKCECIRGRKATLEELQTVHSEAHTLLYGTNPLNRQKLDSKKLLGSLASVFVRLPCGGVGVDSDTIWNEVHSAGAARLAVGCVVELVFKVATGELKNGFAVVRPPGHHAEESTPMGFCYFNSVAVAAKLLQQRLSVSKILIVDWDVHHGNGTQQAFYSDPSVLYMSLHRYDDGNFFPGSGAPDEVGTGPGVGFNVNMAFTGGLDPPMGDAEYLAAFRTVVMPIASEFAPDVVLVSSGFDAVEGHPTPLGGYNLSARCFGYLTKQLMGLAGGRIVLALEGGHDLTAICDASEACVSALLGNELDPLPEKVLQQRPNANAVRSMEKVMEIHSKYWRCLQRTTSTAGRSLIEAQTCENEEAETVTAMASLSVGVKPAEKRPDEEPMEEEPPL
T2 sequence (Q13547 whole entry): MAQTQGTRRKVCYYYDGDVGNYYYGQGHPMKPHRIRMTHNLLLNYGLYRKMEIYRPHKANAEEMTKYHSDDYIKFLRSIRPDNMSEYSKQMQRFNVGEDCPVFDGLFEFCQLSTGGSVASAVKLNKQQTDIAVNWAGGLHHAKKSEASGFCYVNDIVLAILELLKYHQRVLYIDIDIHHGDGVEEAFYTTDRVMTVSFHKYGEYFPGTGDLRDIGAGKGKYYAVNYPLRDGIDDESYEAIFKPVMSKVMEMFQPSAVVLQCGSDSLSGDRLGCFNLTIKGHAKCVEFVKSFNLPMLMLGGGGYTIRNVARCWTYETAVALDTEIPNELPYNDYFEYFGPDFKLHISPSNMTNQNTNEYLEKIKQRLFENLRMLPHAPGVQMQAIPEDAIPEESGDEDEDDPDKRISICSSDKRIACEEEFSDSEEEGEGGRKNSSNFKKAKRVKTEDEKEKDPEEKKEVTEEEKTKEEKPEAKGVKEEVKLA

IC50 (HDAC9): > 33 µM | IC50 (HDAC1): 1.26 µM | IC50 (HDAC3): 0.054 µM | IC50 (HDAC4): > 33 µM | IC50 (HDAC7): > 33 µM | IC50 (HDAC8): > 33 µM | IC50 (HDAC2): 1.34 µM | IC50 (HDAC6): > 33 µM | IC50 (HDAC5): > 33 µM
SMILES: CC(=O)Nc1ccc(C(=O)Nc2ccc(F)cc2N)cc1 [BRD3308]
